Laboratory results taken from ChEMBL document CHEMBL4414679, “Discovery of 4,6-pyrimidinediamine derivatives as novel dual EGFR/FGFR inhibitors aimed EGFR/FGFR1-positive NSCLC” (Eur J Med Chem, 2020).
Calls of active or inactive are those of the source. The rule behind the calls is not given here.

How the values were obtained:
Homo sapiens = species on record: Homo sapiens; assay: Inhibition of cell migration in gefitinib-insensitive human HCC827GR cells incubated upto 72 hrs by wound healing assay; assay type: functional
[1] = target: T1, Epidermal growth factor receptor (Homo sapiens, UniProt P00533); assay: Inhibition of N-terminal GST-tagged human EGFR cytoplasmic domain (669-1210 AA) expressed in baculovirus using FAM-labelled peptide as substrate pre-incubated for 10 mins followed by substrate addition by mobility shift assay
NCI-H520 = assay: Antiproliferative activity against human NCI-H520 cells assessed as inhibition of cell growth at 10 uM incubated for 48 hrs by MTT assay relative to control; assay type: functional; conditions: NCI-H520, 48 h
NCI-H226 [2] = assay: Antiproliferative activity against human NCI-H226 cells incubated for 48 hrs by MTT assay; assay type: functional, cell-based; conditions: NCI-H226, 48 h
NCI-H226 [3] = assay: Induction of cell cycle arrest in human NCI-H226 cells assessed as accumulation of cells at G1 measured after 24 hrs by flow cytometry; assay type: functional, cell-based
[4] = Tmax in Sprague-Dawley rat at 30 mg/kg, po measured upto 24 hrs by UPLC-MS/MS; assay type: ADME, organism-based; conditions: in vivo
[5] = target: T1, Epidermal growth factor receptor; assay: Inhibition of EGF-induced EGFR phosphorylation in serum-starved human PC9 cells upto 10 uM incubated for 1 hr by Western blot analysis
NCI-H226 [6] = assay: Inhibition of colony formation in human NCI-H226 cells measured after 24 hrs by crystal violet staining based assay; assay type: functional, cell-based
NCI-H226 [7] = assay: Induction of apoptosis in human NCI-H226 cells assessed as early apoptotic cells at 1 uM measured after 24 hrs by Annexin-V/propidium iodide staining-based flow cytometric analysis (reference value: 0.8%); assay type: functional
NCI-H226 [8] = assay: Induction of apoptosis in human NCI-H226 cells assessed as necrotic cells at 1 uM measured after 24 hrs by Annexin-V/propidium iodide staining-based flow cytometric analysis (reference value: 3%); assay type: functional
NCI-H226 [9] = assay: Induction of apoptosis in human NCI-H226 cells assessed as late apoptotic cells at 5 uM measured after 24 hrs by Annexin-V/propidium iodide staining-based flow cytometric analysis (reference value: 2.8%); assay type: functional
[10] = Induction of apoptosis in gefitinib-insensitive human HCC827GR cells assessed as early apoptotic cells at 1 uM measured after 24 hrs by Annexin-V/propidium iodide staining-based flow cytometric analysis (reference value: 1.9%); assay type: functional
[11] = Induction of apoptosis in gefitinib-insensitive human HCC827GR cells assessed as necrotic cells at 1 uM measured after 24 hrs by Annexin-V/propidium iodide staining-based flow cytometric analysis (reference value: 5.8%); assay type: functional
[12] = Induction of apoptosis in gefitinib-insensitive human HCC827GR cells assessed as necrotic cells at 5 uM measured after 24 hrs by Annexin-V/propidium iodide staining-based flow cytometric analysis (reference value: 5.8%); assay type: functional
[13] = Induction of apoptosis in gefitinib-insensitive human HCC827GR cells assessed as late apoptotic cells at 5 uM measured after 24 hrs by Annexin-V/propidium iodide staining-based flow cytometric analysis (reference value: 1.5%); assay type: functional
[14] = Induction of apoptosis in gefitinib-insensitive human HCC827GR cells assessed as viable cells at 5 uM measured after 24 hrs by Annexin-V/propidium iodide staining-based flow cytometric analysis (reference value: 90.8%); assay type: functional; conditions: read-out: Activity
[15] = Induction of apoptosis in gefitinib-insensitive human HCC827GR cells assessed as viable cells at 2.5 uM measured after 24 hrs by Annexin-V/propidium iodide staining-based flow cytometric analysis (reference value: 90.8%); assay type: functional; conditions: read-out: Activity
[16] = target: T1, Epidermal growth factor receptor; assay: Inhibition of EGFR in gefitinib-insensitive human HCC827GR cells assessed as reduction in EGF-induced EGFR phosphorylation upto 10 uM measured after 2 hrs by western blot analysis
Mus musculus = assay: Down regulation of FGFR1 phosphorylation in BALB/c nude mouse xenografted with human HCC827GR cells at 15 mg/kg, ip dosed by western blot analysis; assay type: functional, organism-based
[17] = Induction of apoptosis in gefitinib-insensitive human HCC827GR cells assessed as viable cells at 10 uM measured after 24 hrs by Annexin-V/propidium iodide staining-based flow cytometric analysis (reference value: 90.8%); assay type: functional; conditions: read-out: Activity
[18] = Induction of apoptosis in gefitinib-insensitive human HCC827GR cells assessed as necrotic cells at 10 uM measured after 24 hrs by Annexin-V/propidium iodide staining-based flow cytometric analysis (reference value: 5.8%); assay type: functional
[19] = Volume of distribution in Sprague-Dawley rat at 30 mg/kg, po measured upto 24 hrs by UPLC-MS/MS; assay type: ADME, organism-based; conditions: in vivo
[20] = target: Fibroblast growth factor receptor 4 (Homo sapiens) (UniProt P22455); assay: Inhibition of N-terminal GST tagged human FGFR4 cytoplasmic domain (460 to 802 AA) expressed in baculovirus at 10 uM using FAM-labelled peptide as substrate pre-incubated for 10 mins followed by substrate addition by mobility shift assay relative to control
[21] = target: RAC-alpha serine/threonine-protein kinase (Homo sapiens) (UniProt P31749); assay: Inhibition of N-terminal GST tagged human AKT1 catalytic domain (104 to 480 AA) expressed in baculovirus at 10 uM using FAM-labelled peptide as substrate pre-incubated for 10 mins followed by substrate addition by mobility shift assay relative to control
[22] = target: Mitogen-activated protein kinase 3 (Homo sapiens) (UniProt P27361); assay: Inhibition of full length N-terminal GST-tagged human ERK1 (1 to 379 AA) expressed in Escherichia coli at 10 uM using FAM-labelled peptide as substrate pre-incubated for 10 mins followed by substrate addition by mobility shift assay relative to control
[23] = target: Platelet-derived growth factor receptor alpha (Homo sapiens) (UniProt P16234); assay: Inhibition of N-terminal GST tagged human PDGFRalpha cytoplasmic domain (550 to 1089 AA) expressed in baculovirus at 10 uM using FAM-labelled peptide as substrate pre-incubated for 10 mins followed by substrate addition by mobility shift assay relative to control
[24] = target: Vascular endothelial growth factor receptor 1 (Homo sapiens) (UniProt P17948); assay: Inhibition of N-terminal GST tagged human FLT1 cytoplasmic domain (781 to 1338 AA) expressed in baculovirus at 10 uM using FAM-labelled peptide as substrate pre-incubated for 10 mins followed by substrate addition by mobility shift assay relative to control
[25] = target: Vascular endothelial growth factor receptor 3 (Homo sapiens) (UniProt P35916); assay: Inhibition of N-terminal GST tagged human FLT4 cytoplasmic domain (798 to 1298 AA) expressed in baculovirus at 10 uM using FAM-labelled peptide as substrate pre-incubated for 10 mins followed by substrate addition by mobility shift assay relative to control
[26] = target: CDK2/Cyclin A2 (Homo sapiens) (UniProt P24941+P20248); assay: Inhibition of CDK2/cyclin A2 (unknown origin) at 10 uM using FAM-labelled peptide as substrate pre-incubated for 10 mins followed by substrate addition by mobility shift assay relative to control; assay type: protein-complex assay
[27] = target: CDK4/Cyclin D3 (Homo sapiens) (UniProt P11802+P30281); assay: Inhibition of N-terminal GST tagged truncated human CDK4 (1 to 303 AA) coexpressed with CyclinD3 (1 to 292 AA) in baculovirus at 10 uM using FAM-labelled peptide as substrate pre-incubated for 10 mins followed by substrate addition by mobility shift assay relative to control; assay type: protein-complex assay

T1 sequence (P00533 whole entry, the tested form may be a part): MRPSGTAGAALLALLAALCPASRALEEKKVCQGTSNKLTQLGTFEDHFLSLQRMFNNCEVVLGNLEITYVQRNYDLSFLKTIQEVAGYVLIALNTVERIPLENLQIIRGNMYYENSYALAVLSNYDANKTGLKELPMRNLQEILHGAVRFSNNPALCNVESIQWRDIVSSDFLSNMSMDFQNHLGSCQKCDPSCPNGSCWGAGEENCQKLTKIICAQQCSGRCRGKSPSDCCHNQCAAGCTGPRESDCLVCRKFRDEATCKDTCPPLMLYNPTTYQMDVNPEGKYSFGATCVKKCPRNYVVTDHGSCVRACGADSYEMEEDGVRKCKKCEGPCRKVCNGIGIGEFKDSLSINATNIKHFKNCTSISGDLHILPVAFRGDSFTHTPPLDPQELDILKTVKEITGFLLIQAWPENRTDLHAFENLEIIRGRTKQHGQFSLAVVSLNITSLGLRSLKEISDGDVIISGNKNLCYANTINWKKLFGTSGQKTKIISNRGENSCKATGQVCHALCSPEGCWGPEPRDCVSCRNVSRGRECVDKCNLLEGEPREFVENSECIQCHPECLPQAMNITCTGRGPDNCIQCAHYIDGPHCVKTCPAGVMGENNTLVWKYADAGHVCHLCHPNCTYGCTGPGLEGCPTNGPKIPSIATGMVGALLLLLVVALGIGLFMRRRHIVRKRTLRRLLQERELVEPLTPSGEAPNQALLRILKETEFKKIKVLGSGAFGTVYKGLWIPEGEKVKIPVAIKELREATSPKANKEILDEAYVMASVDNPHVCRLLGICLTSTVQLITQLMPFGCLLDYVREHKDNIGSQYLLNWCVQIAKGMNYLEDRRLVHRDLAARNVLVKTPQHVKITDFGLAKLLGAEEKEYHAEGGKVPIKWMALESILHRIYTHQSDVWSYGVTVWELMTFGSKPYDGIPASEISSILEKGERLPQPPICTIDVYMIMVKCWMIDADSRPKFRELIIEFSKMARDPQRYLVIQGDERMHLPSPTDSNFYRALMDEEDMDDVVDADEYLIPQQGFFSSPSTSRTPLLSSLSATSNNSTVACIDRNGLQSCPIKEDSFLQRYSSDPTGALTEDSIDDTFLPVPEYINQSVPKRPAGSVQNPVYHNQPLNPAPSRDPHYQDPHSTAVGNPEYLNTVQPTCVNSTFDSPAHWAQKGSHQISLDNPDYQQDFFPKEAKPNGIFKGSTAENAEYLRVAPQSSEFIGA
Chain of Vascular endothelial growth factor receptor 1 (Homo sapiens) (P17948 whole entry, the tested form may be a part): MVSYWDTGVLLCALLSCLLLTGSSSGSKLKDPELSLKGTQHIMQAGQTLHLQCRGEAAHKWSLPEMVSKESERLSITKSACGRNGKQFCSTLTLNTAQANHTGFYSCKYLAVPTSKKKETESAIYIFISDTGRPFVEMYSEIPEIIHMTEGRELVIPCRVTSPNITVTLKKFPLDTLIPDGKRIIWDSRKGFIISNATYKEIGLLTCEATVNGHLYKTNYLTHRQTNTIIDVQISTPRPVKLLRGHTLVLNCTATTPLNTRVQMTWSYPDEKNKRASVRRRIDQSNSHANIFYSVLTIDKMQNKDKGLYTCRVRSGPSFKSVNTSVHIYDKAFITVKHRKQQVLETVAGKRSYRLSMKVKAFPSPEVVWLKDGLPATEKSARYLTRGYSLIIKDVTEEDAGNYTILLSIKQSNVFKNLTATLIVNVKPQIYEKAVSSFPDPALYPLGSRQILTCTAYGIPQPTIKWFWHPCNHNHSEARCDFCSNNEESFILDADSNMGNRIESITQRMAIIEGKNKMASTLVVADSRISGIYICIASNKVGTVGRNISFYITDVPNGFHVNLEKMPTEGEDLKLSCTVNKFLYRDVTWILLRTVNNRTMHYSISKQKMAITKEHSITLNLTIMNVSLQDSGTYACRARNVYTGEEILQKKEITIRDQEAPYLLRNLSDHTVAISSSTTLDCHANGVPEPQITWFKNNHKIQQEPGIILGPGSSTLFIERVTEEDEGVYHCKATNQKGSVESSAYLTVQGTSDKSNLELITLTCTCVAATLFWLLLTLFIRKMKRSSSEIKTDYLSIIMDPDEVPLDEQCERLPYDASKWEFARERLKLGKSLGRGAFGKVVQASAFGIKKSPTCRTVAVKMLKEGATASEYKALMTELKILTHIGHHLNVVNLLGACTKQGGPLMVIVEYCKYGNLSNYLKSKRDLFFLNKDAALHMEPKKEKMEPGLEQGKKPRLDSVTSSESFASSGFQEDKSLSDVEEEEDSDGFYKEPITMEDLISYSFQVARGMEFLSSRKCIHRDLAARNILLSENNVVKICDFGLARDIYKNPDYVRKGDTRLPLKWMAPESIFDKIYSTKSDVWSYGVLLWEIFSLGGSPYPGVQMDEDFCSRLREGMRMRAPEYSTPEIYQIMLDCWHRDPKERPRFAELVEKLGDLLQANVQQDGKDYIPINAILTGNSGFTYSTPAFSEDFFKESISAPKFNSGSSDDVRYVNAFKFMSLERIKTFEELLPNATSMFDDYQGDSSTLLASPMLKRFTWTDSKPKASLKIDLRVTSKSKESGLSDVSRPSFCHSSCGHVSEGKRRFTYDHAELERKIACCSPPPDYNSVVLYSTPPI
Chain of RAC-alpha serine/threonine-protein kinase (Homo sapiens) (P31749 whole entry, the tested form may be a part): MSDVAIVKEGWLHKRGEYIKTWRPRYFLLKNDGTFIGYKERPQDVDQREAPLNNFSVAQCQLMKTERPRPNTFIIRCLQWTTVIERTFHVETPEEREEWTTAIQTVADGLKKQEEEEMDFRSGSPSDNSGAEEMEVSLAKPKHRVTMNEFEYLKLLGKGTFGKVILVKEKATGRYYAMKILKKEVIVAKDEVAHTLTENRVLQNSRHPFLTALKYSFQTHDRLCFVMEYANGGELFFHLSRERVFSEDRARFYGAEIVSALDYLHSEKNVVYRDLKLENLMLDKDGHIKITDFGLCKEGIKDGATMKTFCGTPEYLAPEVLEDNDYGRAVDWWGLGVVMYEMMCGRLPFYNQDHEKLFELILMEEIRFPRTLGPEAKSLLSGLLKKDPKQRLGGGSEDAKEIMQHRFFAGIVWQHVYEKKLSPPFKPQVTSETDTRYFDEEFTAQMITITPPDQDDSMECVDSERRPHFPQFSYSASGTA
Chain of Platelet-derived growth factor receptor alpha (Homo sapiens) (P16234 whole entry, the tested form may be a part): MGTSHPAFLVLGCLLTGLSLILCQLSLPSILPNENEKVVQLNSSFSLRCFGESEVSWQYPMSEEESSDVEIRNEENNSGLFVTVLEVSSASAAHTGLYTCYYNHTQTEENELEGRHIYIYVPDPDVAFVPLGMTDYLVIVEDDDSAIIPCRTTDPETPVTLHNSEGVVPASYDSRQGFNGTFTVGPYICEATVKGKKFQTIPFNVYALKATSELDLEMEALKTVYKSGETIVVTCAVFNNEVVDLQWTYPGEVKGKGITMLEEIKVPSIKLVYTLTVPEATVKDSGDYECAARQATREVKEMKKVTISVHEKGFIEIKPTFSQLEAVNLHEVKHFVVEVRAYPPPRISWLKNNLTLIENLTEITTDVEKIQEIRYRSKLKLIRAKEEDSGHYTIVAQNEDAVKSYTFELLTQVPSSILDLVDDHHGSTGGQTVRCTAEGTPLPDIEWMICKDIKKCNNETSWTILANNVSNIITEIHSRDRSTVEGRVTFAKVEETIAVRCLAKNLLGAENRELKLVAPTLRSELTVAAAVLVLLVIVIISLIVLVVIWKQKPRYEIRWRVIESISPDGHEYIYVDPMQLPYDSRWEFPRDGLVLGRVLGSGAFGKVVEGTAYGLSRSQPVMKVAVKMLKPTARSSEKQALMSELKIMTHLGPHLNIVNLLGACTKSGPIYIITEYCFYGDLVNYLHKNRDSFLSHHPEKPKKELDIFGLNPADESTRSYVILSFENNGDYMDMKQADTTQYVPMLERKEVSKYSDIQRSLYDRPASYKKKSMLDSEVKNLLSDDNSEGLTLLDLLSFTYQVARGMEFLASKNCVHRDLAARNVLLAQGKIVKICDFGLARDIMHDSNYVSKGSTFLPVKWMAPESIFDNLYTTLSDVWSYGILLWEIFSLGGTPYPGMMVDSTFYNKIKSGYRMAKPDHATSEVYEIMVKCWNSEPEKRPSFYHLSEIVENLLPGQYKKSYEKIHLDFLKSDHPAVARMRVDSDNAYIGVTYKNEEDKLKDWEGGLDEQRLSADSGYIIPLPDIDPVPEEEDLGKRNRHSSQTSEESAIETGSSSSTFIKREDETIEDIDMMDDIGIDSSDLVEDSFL
Chain of Fibroblast growth factor receptor 4 (Homo sapiens) (P22455 22-802 limits assumed): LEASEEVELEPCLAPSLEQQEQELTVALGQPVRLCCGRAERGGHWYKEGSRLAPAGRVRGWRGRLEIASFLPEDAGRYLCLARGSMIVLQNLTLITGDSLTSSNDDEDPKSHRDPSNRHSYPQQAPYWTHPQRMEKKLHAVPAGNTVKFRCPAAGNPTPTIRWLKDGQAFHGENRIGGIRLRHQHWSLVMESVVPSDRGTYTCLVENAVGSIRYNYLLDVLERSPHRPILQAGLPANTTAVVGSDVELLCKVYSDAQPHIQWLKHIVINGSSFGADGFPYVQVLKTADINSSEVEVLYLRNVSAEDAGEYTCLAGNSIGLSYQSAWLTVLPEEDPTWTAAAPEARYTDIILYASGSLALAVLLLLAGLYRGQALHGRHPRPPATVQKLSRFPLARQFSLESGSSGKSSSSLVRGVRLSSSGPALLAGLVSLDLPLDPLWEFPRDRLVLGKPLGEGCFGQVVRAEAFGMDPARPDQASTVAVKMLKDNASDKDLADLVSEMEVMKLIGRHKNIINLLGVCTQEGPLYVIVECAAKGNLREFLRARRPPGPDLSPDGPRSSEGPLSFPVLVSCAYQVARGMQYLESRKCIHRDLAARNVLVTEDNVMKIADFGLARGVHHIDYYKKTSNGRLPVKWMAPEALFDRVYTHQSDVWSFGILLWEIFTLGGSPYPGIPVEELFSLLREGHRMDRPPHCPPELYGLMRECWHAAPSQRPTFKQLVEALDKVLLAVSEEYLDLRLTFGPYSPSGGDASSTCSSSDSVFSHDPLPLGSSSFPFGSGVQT

## COc1ccc(OC)c(Nc2cc(NC(=O)Nc3c(Cl)cccc3Cl)ncn2)c1
Homo sapiens
  inhibition: Dose-dependent effect
[1]
  IC50: 0.202 µM
NCI-H520
  inhibition at 10 µM: 74%
NCI-H226 [2]
  IC50: 2.26 µM
NCI-H226 [3]
  Activity: Active
[4]
  Tmax: 1.5 h
[5]
  inhibition: Active
NCI-H226 [6]
  inhibition: Dose-dependent effect
NCI-H226 [7]
  Activity: 3%
NCI-H226 [8]
  Activity: 5.8%
NCI-H226 [9]
  Activity: 8.9%
[10]
  Activity: 0.9%
[11]
  Activity: 3.6%
[12]
  Activity: 4.1%
[13]
  Activity: 25.3%
[14]
  viability at 5 µM: 68.9%
[15]
  viability at 2.5 µM: 79.5%
[16]
  inhibition: Active
Mus musculus
  Activity: Active
[17]
  viability at 10 µM: 51.5%
[18]
  Activity: 5.4%
[19]
  Vd: 0.03 L/kg
[20]
  inhibition: 12.3%
[21]
  inhibition: 19.4%
[22]
  inhibition: 8.2%
[23]
  inhibition: 48.1%
[24]
  inhibition: 27.6%
[25]
  inhibition: 43.6%
[26]
  inhibition: 4.4%
[27]
  inhibition: 12.5%
